The nature of data set [1]: Drug metabolism in heparinized pooled human plasma at pH 7.5 assessed as formation of (S)-2-(2-(carboxymethoxy)-4-(5-((((R)-2-((R)-1-(N-hydroxyformamido)propyl)heptanamido)methyl)carbamoyl)furan-2-yl)benzamido)succinic acid at 100 to 2000 ng/ml incubated up to 4 or 24 hrs by LC-MS/MS analysis. It is filed as ADME, cell-free. Particulars: pH 7.5, 24 h.
The nature of data set [2]: Reduction in PICP levels in human cardiac fibroblasts incubated for 24 to 48 hrs by ELISA. Type of data set: functional.
Data set [3] can be described thus: Drug metabolism in heparinized pooled human plasma at pH 7.5 assessed as formation of (3-ethoxy-5-(5-((((R)-2-((R)-1-(N-hydroxyformamido)propyl)heptanamido)methyl)carbamoyl) furan-2-yl)phenyl)phosphonic acid at 100 to 2000 ng/ml incubated up to 4 or 24 hrs by LC-MS/MS analysis. It is filed as ADME, cell-free. Particulars: pH 7.5, 24 h.

As to `CCCCC[C@@H](C(=O)NCNC(=O)c1ccc(-c2ccc(C(=O)N[C@@H](CC(=O)O)C(=O)O)c(OCC(=O)O)c2)o1)[C@@H](CC)N(C=O)OC(=O)C1CC1C` (stereo not given in full), the Drug metabolism entry in data set [1] is listed as “Metabolite_Detected”. As for `CCCCC[C@@H](C(=O)NCNC(=O)c1ccc(-c2ccc(C(=O)N[C@@H](CC(=O)O)C(=O)O)c(OCC(=O)O)c2)o1)[C@@H](CC)N(C=O)OC(=O)c1ccccc1C(C)C`, in data set [1], the Drug metabolism result is given as “Metabolite_Detected”. This compound also showed an IC50 in data set [2] below 3.98 µM. As to `CCCCC[C@@H](C(=O)NCNC(=O)c1ccc(-c2ccc(C(=O)N[C@@H](CC(=O)O)C(=O)O)c(OCC(=O)O)c2)o1)[C@@H](CC)N(C=O)OC(=O)c1cccc(C(=O)O)c1`, the Drug metabolism result in data set [1] is listed as “Metabolite_Detected”. Take `CCCCC[C@@H](C(=O)NCNC(=O)c1ccc(-c2ccc(C(=O)N[C@@H](CC(=O)O)C(=O)O)c(OCC(=O)O)c2)o1)[C@@H](CC)N(C=O)OC(=O)NC(C)(C)c1ccccc1`: the Drug metabolism entry in data set [1] is “Metabolite_Detected”. In the case of `CCCCCCCCC(=O)ON(C=O)[C@H](CC)[C@@H](CCCCC)C(=O)NCNC(=O)c1ccc(-c2cc(OCC)cc(P(=O)(O)O)c2)o1`, in data set [3], the Drug metabolism entry is recorded as “Metabolite_Detected”. For the compound `CCCCC[C@@H](C(=O)NCNC(=O)c1ccc(-c2ccc(C(=O)N[C@@H](CC(=O)O)C(=O)O)c(OCC(=O)O)c2)o1)[C@@H](CC)N(C=O)OC(=O)c1ccccc1NC`, the Drug metabolism entry in data set [1] was “Metabolite_Detected”. Further, the IC50 in data set [2] is below 3.98 µM. On to `CCCCC[C@@H](C(=O)NCNC(=O)c1ccc(-c2cc(OCC)cc(P(=O)(O)OCOC(=O)C(C)C)c2)o1)[C@@H](CC)N(O)C=O`, for which the Drug metabolism entry in data set [3] is “Metabolite_Detected”.

On to `CCCCC[C@@H](C(=O)NCNC(=O)c1ccc(-c2ccc(C(=O)N[C@@H](CC(=O)O)C(=O)O)c(OCC(=O)O)c2)o1)[C@@H](CC)N(C=O)OC(=O)N(C)C(=O)OC(C)(C)C`, for which, in data set [1], the Drug metabolism result is reported as “Metabolite_Detected”. Besides, the IC50 in data set [2] was below 3.98 µM. Taken in the same sequence, the figures for `CCCCC[C@@H](C(=O)NCNC(=O)c1ccc(-c2ccc(C(=O)N[C@@H](CC(=O)O)C(=O)O)c(OCC(=O)O)c2)o1)[C@@H](CC)N(C=O)OC(=O)c1ccc(F)cc1C(C)C` were “Metabolite_Detected” and below 3.98 µM. For the compound `CCCCC[C@@H](C(=O)NCNC(=O)c1ccc(-c2cc(OCC)cc(P(=O)(O)O)c2)o1)[C@@H](CC)N(C=O)OC(=O)c1c(C)cccc1F`, in data set [3], the Drug metabolism entry was “Metabolite_Detected”. As for `CCCCC[C@@H](C(=O)NCNC(=O)c1ccc(-c2ccc(C(=O)N[C@@H](CC(=O)O)C(=O)O)c(OCC(=O)O)c2)o1)[C@@H](CC)N(C=O)OC(=O)C(CCC)CCC`, in data set [1], the Drug metabolism result is on record as “Metabolite_Detected”. In data set [2], this compound had a half-inhibitory concentration (IC50) below 3.98 µM. In the case of `CCCCC[C@@H](C(=O)NCNC(=O)c1ccc(-c2cc(OCC)cc(P(=O)(OCOC(=O)C(C)C)OCOC(=O)C(C)C)c2)o1)[C@@H](CC)N(O)C=O`, the Drug metabolism result in data set [3] is listed as “Metabolite_Detected”. Consider `CCCCC[C@@H](C(=O)NCNC(=O)c1ccc(-c2ccc(C(=O)N[C@@H](CC(=O)O)C(=O)O)c(OCC(=O)O)c2)o1)[C@@H](CC)N(C=O)OC(=O)C(c1ccccc1)c1ccccc1`, for which the Drug metabolism entry in data set [1] is recorded as “Metabolite_Detected”. Also, the IC50 in data set [2] was below 3.98 µM. With `CCCCC[C@@H](C(=O)NCNC(=O)c1ccc(-c2cc(OCC)cc(P(=O)(O)O)c2)o1)[C@@H](CC)N(C=O)OC(=O)c1ccccc1OC(=O)N(C)C`, in data set [3], the Drug metabolism result is recorded as “Metabolite_Detected”. Still for that read-out and setting: the entry for `CCCCC[C@@H](C(=O)NCNC(=O)c1ccc(-c2cc(OCC)cc(P(=O)(O)O)c2)o1)[C@@H](CC)N(C=O)OC(=O)c1ccc(N2CCOCC2)cc1` is “Metabolite_Detected”. For the compound `CCCCC[C@@H](C(=O)NCNC(=O)c1ccc(-c2ccc(C(=O)N[C@@H](CC(=O)O)C(=O)O)c(OCC(=O)O)c2)o1)[C@@H](CC)N(C=O)OC(=O)c1c(C)cccc1F`, in data set [1], the Drug metabolism entry is listed as “Metabolite_Detected”.

Consider `CCCCC[C@@H](C(=O)NCNC(=O)c1ccc(-c2ccc(C(=O)N[C@@H](CC(=O)O)C(=O)O)c(OCC(=O)O)c2)o1)[C@@H](CC)N(C=O)OC(=O)c1ccc(OC)cc1OC.N.N.N`, for which the Drug metabolism result in data set [1] is “Metabolite_Detected”. This compound gave an IC50 in data set [2] below 3.98 µM.

`CCCCC[C@@H](C(=O)NCNC(=O)c1ccc(-c2ccc(C(=O)N[C@@H](CC(=O)O)C(=O)O)c(OCC(=O)O)c2)o1)[C@@H](CC)N(C=O)OC(=O)c1ccc2ccccc2c1`: the Drug metabolism result in data set [1] is recorded as “Metabolite_Detected”. For the same compound, the IC50 in data set [2] is below 3.98 µM. Taken in the same sequence, the figures for `CCCCC[C@@H](C(=O)NCNC(=O)c1ccc(-c2ccc(C(=O)N[C@@H](CC(=O)O)C(=O)O)c(OCC(=O)O)c2)o1)[C@@H](CC)N(C=O)OC(=O)NC(C)(C)C` were “Metabolite_Detected” and below 3.98 µM. The matching figures for `CCCCC[C@@H](C(=O)NCNC(=O)c1ccc(-c2ccc(C(=O)N[C@@H](CC(=O)O)C(=O)O)c(OCC(=O)O)c2)o1)[C@@H](CC)N(C=O)OC(=O)c1ccccc1N`: “Metabolite_Detected” and below 3.98 µM. Turning to `CCCCC[C@@H](C(=O)NCNC(=O)c1ccc(-c2ccc(C(=O)N[C@@H](CC(=O)O)C(=O)O)c(OCC(=O)O)c2)o1)[C@@H](CC)N(C=O)OC(=O)c1cccc2ccccc12`, the Drug metabolism result in data set [1] is listed as “Metabolite_Detected”. The IC50 in data set [2] was below 3.98 µM. In the case of `CCCCC[C@@H](C(=O)NCNC(=O)c1ccc(-c2cc(OCC)cc(P(=O)(O)O)c2)o1)[C@@H](CC)N(C=O)OC(=O)c1ccc(F)cc1C(C)C`, the Drug metabolism result in data set [3] is on record as “Metabolite_Detected”. On to `CCCCC[C@@H](C(=O)NCNC(=O)c1ccc(-c2ccc(C(=O)N[C@@H](CC(=O)O)C(=O)O)c(OCC(=O)O)c2)o1)[C@@H](CC)N(C=O)OC(=O)c1ccc(CN2CCOCC2)cc1C`, for which, in data set [1], the Drug metabolism entry was “Metabolite_Detected”. The compound further gave an IC50 in data set [2] below 3.98 µM. Taken in the same sequence, the figures for `CCCCC[C@@H](C(=O)NCNC(=O)c1ccc(-c2ccc(C(=O)N[C@@H](CC(=O)O)C(=O)O)c(OCC(=O)O)c2)o1)[C@@H](CC)N(C=O)OC(=O)c1c(C)noc1C` were “Metabolite_Detected” and below 3.98 µM. Consider `CCCCC[C@@H](C(=O)NCNC(=O)c1ccc(-c2cc(OCC)cc(P(=O)(O)O)c2)o1)[C@@H](CC)N(C=O)OC(=O)c1cccc(N2CCCC2)c1.N.N`, for which the Drug metabolism entry in data set [3] is “Metabolite_Detected”.

`CCCCC[C@@H](C(=O)NCNC(=O)c1ccc(-c2cc(OCC)cc(P(=O)(O)OCc3oc(=O)oc3C)c2)o1)[C@@H](CC)N(O)C=O`: in data set [3], the Drug metabolism entry was “Metabolite_Detected”.

As to `CCCCC[C@@H](C(=O)NCNC(=O)c1ccc(-c2ccc(C(=O)N[C@@H](CC(=O)O)C(=O)O)c(OCC(=O)O)c2)o1)[C@@H](CC)N(C=O)OC(=O)NC(C)C`, in data set [1], the Drug metabolism result is given as “Metabolite_Detected”. The same compound showed an IC50 in data set [2] below 3.98 µM. Take `CCCCC[C@@H](C(=O)NCNC(=O)c1ccc(-c2ccc(C(=O)N[C@@H](CC(=O)O)C(=O)O)c(OCC(=O)O)c2)o1)[C@@H](CC)N(C=O)OC(=O)c1ccc(CN2CCOCC2)cc1`: the Drug metabolism result in data set [1] was “Metabolite_Detected”. Also, the IC50 in data set [2] was below 3.98 µM. Take `CCCCC[C@@H](C(=O)NCNC(=O)c1ccc(-c2ccc(C(=O)N[C@@H](CC(=O)O)C(=O)O)c(OCC(=O)O)c2)o1)[C@@H](CC)N(C=O)OP(=O)(N[C@@H](C)C(=O)OC)Oc1ccccc1.N.N.N` (stereo not given in full): in data set [1], the Drug metabolism entry is “Metabolite_Detected”. Turning to `CCCCC[C@@H](C(=O)NCNC(=O)c1ccc(-c2ccc(C(=O)N[C@@H](CC(=O)O)C(=O)O)c(OCC(=O)O)c2)o1)[C@@H](CC)N(C=O)OC(=O)c1c(C)ccnc1C`, the Drug metabolism result in data set [1] was “Metabolite_Detected”. Moreover, the IC50 in data set [2] is below 3.98 µM.

Regarding `CCCCC[C@@H](C(=O)NCNC(=O)c1ccc(-c2ccc(C(=O)N[C@@H](CC(=O)O)C(=O)O)c(OCC(=O)O)c2)o1)[C@@H](CC)N(C=O)OC(=O)Nc1ccccc1`, the Drug metabolism result in data set [1] was “Metabolite_Detected”. Regarding `CCCCC[C@@H](C(=O)NCNC(=O)c1ccc(-c2ccc(C(=O)N[C@@H](CC(=O)O)C(=O)O)c(OCC(=O)O)c2)o1)[C@@H](CC)N(C=O)OC(=O)c1c(C)cccc1OC`, in data set [1], the Drug metabolism result is “Metabolite_Detected”. The IC50 in data set [2] is below 3.98 µM. With `CCCCC[C@@H](C(=O)NCNC(=O)c1ccc(-c2ccc(C(=O)N[C@@H](CC(=O)O)C(=O)O)c(OCC(=O)O)c2)o1)[C@@H](CC)N(C=O)OC(=O)c1ccncc1C.N.N.N`, the Drug metabolism entry in data set [1] is on record as “Metabolite_Detected”. The same compound showed a concentration for half-maximal inhibition (IC50) in data set [2] below 3.98 µM. Taken in the same sequence, the figures for `CCCCC[C@@H](C(=O)NCNC(=O)c1ccc(-c2ccc(C(=O)N[C@@H](CC(=O)O)C(=O)O)c(OCC(=O)O)c2)o1)[C@@H](CC)N(C=O)OC(=O)C1(C)CC1` were “Metabolite_Detected” and below 3.98 µM.

As for `CCCCC[C@@H](C(=O)NCNC(=O)c1ccc(-c2ccc(C(=O)N[C@@H](CC(=O)O)C(=O)O)c(OCC(=O)O)c2)o1)[C@@H](CC)N(C=O)OC(=O)c1ccccc1OC(=O)N(C)C`, the Drug metabolism result in data set [1] was “Metabolite_Detected”. Same read-out and setting: as for `CCCCC[C@@H](C(=O)NCNC(=O)c1ccc(-c2ccc(C(=O)N[C@@H](CC(=O)O)C(=O)O)c(OCC(=O)O)c2)o1)[C@@H](CC)N(C=O)OC(=O)NC`, the entry is “Metabolite_Detected”; as for `CCCCC[C@@H](C(=O)NCNC(=O)c1ccc(-c2ccc(C(=O)N[C@@H](CC(=O)O)C(=O)O)c(OCC(=O)O)c2)o1)[C@@H](CC)N(C=O)OC(=O)c1ccc(OC)cc1`, “Metabolite_Detected”. For `CCCCC[C@@H](C(=O)NCNC(=O)c1ccc(-c2ccc(C(=O)N[C@@H](CC(=O)O)C(=O)O)c(OCC(=O)O)c2)o1)[C@@H](CC)N(C=O)OC(=O)c1ccc(OC)c(OC)c1`, the Drug metabolism entry in data set [1] is “Metabolite_Detected”. In addition, the IC50 in data set [2] was below 3.98 µM. Turning to `CCCCC[C@@H](C(=O)NCNC(=O)c1ccc(-c2ccc(C(=O)N[C@@H](CC(=O)O)C(=O)O)c(OCC(=O)O)c2)o1)[C@@H](CC)N(C=O)OC(=O)c1ccc(OC)cc1C(C)C`, the Drug metabolism result in data set [1] is recorded as “Metabolite_Detected”. In data set [2], this compound had an IC50 below 3.98 µM.

Values taken from ChEMBL document CHEMBL4418493, “N-hydroxyformamide compounds and compositions comprising them for use as BMP1, TLL1 and/or TLL2 inhibitors” (2018).
